Experimental data: a compilation of properties of binary mixtures (doi:10.1021/acs.jpcc.8b05573)

Experiment: xn = mol fraction of the nth substance listed
Conditions: 100 kPa, x1 = 0.24

O=S(=O)([N-]S(=O)(=O)C(F)(F)F)C(F)(F)F.O=S(=O)([N-]S(=O)(=O)C(F)(F)F)C(F)(F)F.[Zn+2] + CCCC[N+]1(C)CCCC1.O=S(=O)([N-]S(=O)(=O)C(F)(F)F)C(F)(F)F
Conditions | electrical conductivity [S/m]
337.3 K | 0.163
344.9 K | 0.213
366.8 K | 0.399
375.2 K | 0.508
391 K | 0.805
430.4 K | 1.79
449.5 K | 2.51

O=S(=O)([N-]S(=O)(=O)C(F)(F)F)C(F)(F)F.O=S(=O)([N-]S(=O)(=O)C(F)(F)F)C(F)(F)F.[Mg+2] + CCCC[N+]1(C)CCCC1.O=S(=O)([N-]S(=O)(=O)C(F)(F)F)C(F)(F)F
Conditions | electrical conductivity [S/m]
279.2 K | 0.003
282.4 K | 0.005
286.1 K | 0.006
289.5 K | 0.009
293 K | 0.013
296.9 K | 0.017
300.2 K | 0.022
304.4 K | 0.031
310.6 K | 0.046
317.5 K | 0.07
323.8 K | 0.096
334.5 K | 0.159
345.4 K | 0.252
355.5 K | 0.346
363.5 K | 0.461
372.9 K | 0.574
386 K | 0.786
400.6 K | 1.08
417.1 K | 1.44

O=S(=O)([N-]S(=O)(=O)C(F)(F)F)C(F)(F)F.[Li+] + CCCC[N+]1(C)CCCC1.O=S(=O)([N-]S(=O)(=O)C(F)(F)F)C(F)(F)F
Conditions | electrical conductivity [S/m]
272.9 K | 0.005
279.8 K | 0.01
288.8 K | 0.027
295.1 K | 0.052
305.1 K | 0.098
325.1 K | 0.235
338.2 K | 0.329
360.2 K | 0.633
371.2 K | 0.846
385.4 K | 1.24
409.4 K | 1.88
429.6 K | 2.77

O=S(=O)([N-]S(=O)(=O)C(F)(F)F)C(F)(F)F.[Na+] + CCCC[N+]1(C)CCCC1.O=S(=O)([N-]S(=O)(=O)C(F)(F)F)C(F)(F)F
Conditions | electrical conductivity [S/m]
274.2 K | 0.006
283.8 K | 0.02
291.9 K | 0.041
300.2 K | 0.07
308.6 K | 0.119
323.4 K | 0.223
356.5 K | 0.663
362.4 K | 0.805
380.6 K | 1.24
417.8 K | 2.45
434.2 K | 3.04
